# Assay: Administration of methotrexate to a sheep via the CSF circuit; drug concentration measured with LC/MS in CSF, spinal cord and brain regions
# Assay type: in vivo
# Method: The inventors administered methotrexate to sheep using illustrative embodiments. An outline of the study is depicted by FIGS. 16A-16C. A sheep used for this experiment received the CSF circuit 10 of illustrative embodiments. Circulation was started at the same time that methotrexate was infused. Methotrexate was infused at a gradual rate of 2 mLs over 2 minutes and then recirculation from lumbar to ventricle was started at a rate of 0.2 mLs/min. Circulation continued after drug infusion was stopped for […]. At zero to three hours, the circulation rate was at 0.1 mL/min and from four to six hours, circulation was at 0.3 mL/min. The dose of methotrexate infused was 12 mg. Drug concentration was measured with LC/MS (liquid chromatography with the mass analysis capabilities of mass spectrometry) in the CSF, spinal cord, and multiple brain regions.
# CSF levels of methotrexate were analyzed over time.
# The x-axis of this graph is […].
compound,measurement,setting,value
CN(Cc1cnc2nc(N)nc(N)c2n1)c1ccc(C(=O)N[C@@H](CCC(=O)O)C(=O)O)cc1 [methotrexate],"CSF levels of methotrexate, lumbar region","12 mg infused 2 mLs over 2 minutes, lumbar region where drug was infused, lumbar to ventricle circulation, LC/MS",very high
same,"CSF levels of methotrexate over time, lumbar region","12 mg, lumbar CSF samples, time course, LC/MS",a decline over time was measured except for an increase at 5 hours and then a subsequent decline
same,methotrexate levels in brain and spinal cord tissue,"12 mg, samples from twelve brain regions homogenized, all areas of the brain and spinal cord",good levels
same,"CSF levels of methotrexate, ventricular samples, initially","12 mg, ventricular CSF samples, initial time points, LC/MS",very low
same,"CSF levels of methotrexate over time, ventricular samples","12 mg, ventricular CSF samples, later time points, LC/MS","increased at 4 and 5 hours, before declining to a similar level as the lumbar samples"
